From ChEMBL document CHEMBL1201862, “PubChem BioAssay data set” (2004)
Active and inactive are the calls of the source.

What was measured:
[1] = target: T1, Methionyl-tRNA synthetase, putative (Trypanosoma brucei brucei, UniProt Q38C91); type: functional, Trypanosoma brucei brucei strain 927/4 GUTat10.1
[2] = Counterscreen for inhibitors of Trypanosoma brucei methionyl tRNA synthetase (MetRS): Luminescence-based cell-based high throughput dose response assay to identify compounds that are cytotoxic to Jurkat human T lymphocyte cells.; type: functional
[3] = target: T1, Methionyl-tRNA synthetase, putative; type: functional, Trypanosoma brucei brucei strain 927/4 GUTat10.1; remark: listed apart in the source
[4] = loss of viability in HepG2 cells – cell-based, CellTiter-Glo, cherry-picked, cytotoxicity control for Shn3 inhibitor project, dose response (AID 624134); type: functional
INS1 = assay: INS-1E survival protection against cytokine death – cell-based, luminescence, retest, dose response (AID 449756); type: functional; conditions: Rattus norvegicus;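 also: cell death triggered by IL-1 beta plus TNF-alpha plus IFN-gamma mixture; protective hits raise ATP signal compared with cytokine alone wells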
[5] = general cell-killing toxicity readout – plate reader, dry powder samples, cytotoxicity control for PAX8 inhibitor project, dose response (AID 743021); type: functional, cell-based
[6] = test system: Streptococcus sp. 'group A'; assay: Streptococcus pyogenes SK(-)GAS viability under kanamycin – luminescence, BacTiterGlo, confirmation, counter-screen for streptokinase expression inhibitor project, dose response (AID 1900); type: functional, organism-based
[7] = alpha-synuclein stem-loop luciferase translation blockers – H4 neuroglioma cells, luminescence, confirmation (AID 1988); type: functional, cell-based
Paired box protein Pax-8 = Paired box protein Pax-8 (Homo sapiens, UniProt Q06710); assay: PAX8 transcriptional activity inhibition in RMG-I – RMG-I cells, luciferase, cherry-pick, dose response (AID 687027); type: functional, cell-based;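 also: luciferase reporter driven by Pax8 target thyroperoxidase promoter measured by SteadyGlo luminescence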
Fatty acid synthase [8] = target: T2, Fatty acid synthase (Homo sapiens, UniProt P49327); assay: inhibition of human FAS-TE enzyme activity – biochemical, endpoint fluorescence intensity, uHTS hits, dose response (AID 624327); type: functional;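 also: fluorescence from hydrolysis of an O-methyl fluorescein acyl ester substrate by the enzyme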
[9] = luciferase reporter signal suppression in cells – H4 neuroglioma cells, luminescence, dose response (AID 1990); type: functional, cell-based
[10] = non-specific 3'UTR reporter inhibition in Clone20-Shn3RL – cell-based, Renilla luciferase, cherry-picked, counter-screen for Shn3 inhibitor project, dose response (AID 624133); type: functional
Fatty acid synthase [11] = target: T2, Fatty acid synthase; assay: inhibition of human FAS-TE enzyme activity – biochemical, kinetic fluorescence intensity, dose response (AID 624326); type: functional;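 also: rate of fluorescence rise from hydrolysis of a fluorogenic O-methyl fluorescein ester substrate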
[12] = target: ATP-binding cassette sub-family B member 6 (Homo sapiens, UniProt Q9NP58); assay: ABCB6 transporter inhibitors, porphyrin accumulation, dose response, flow cytometry, K562-ABCB6 cells, cherry pick 02 (AID 624487); type: functional; conditions: read-out: EC50_MICROM
[13] = Luminescence Cell-Based Dose Response HTS to Identify Inhibitors of 5'UTR Stem-Loop Driven Prion Protein mRNA Translation in H4 Neuroglioblastoma Cells. [Related pubchem assays: 1827 (Project Summary), 1813 (Primary HTS)]; type: functional
Streptokinase A = target: T3, Streptokinase A (Streptococcus pyogenes serotype M1, UniProt P10520); assay: viability-normalized secreted streptokinase activity reduction – plasminogen activation absorbance, OD405, dose response (AID 1914); type: functional, Streptococcus pyogenes M1 GAS;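 also: secreted streptokinase activity via plasminogen activation per viability signal from cell pellet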
T3 sequence (P10520 whole entry): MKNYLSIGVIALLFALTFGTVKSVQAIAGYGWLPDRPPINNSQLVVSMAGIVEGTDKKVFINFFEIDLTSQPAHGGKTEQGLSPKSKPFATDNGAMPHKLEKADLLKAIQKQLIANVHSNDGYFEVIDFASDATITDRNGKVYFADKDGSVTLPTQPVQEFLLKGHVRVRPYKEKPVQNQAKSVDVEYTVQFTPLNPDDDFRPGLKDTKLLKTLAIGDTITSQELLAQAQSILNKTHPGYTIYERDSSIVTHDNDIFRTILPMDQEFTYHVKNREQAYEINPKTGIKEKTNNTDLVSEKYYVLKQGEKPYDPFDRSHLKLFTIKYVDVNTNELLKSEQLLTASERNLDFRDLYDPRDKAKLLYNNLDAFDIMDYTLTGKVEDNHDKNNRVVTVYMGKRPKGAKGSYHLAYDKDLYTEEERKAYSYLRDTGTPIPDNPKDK

[14] = reduction of Shn3 3'UTR-driven luciferase in osteoblasts – cell-based, Clone20 osteoblasts, firefly luciferase, cherry-picked, dose response (AID 624132); type: functional;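 also: firefly luciferase luminescence from reporter carrying the Shn3 3'UTR in osteoblasts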
Streptococcus = assay: GAS UMAA2166 growth inhibition – luminescence, BacTiterGlo, counter-screen for streptokinase expression inhibitor project, dose response (AID 1915); type: functional, organism-based;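 also: potency for reduction of bacterial viability or growth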
Mu-type opioid receptor = Mu-type opioid receptor (Homo sapiens, UniProt P35372); type: functional, cell-based;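 also: U2OS cells with beta-arrestin recruitment to OPRM1 by beta-gal complementation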
[15] = target: 5-hydroxytryptamine receptor 2A (Mus musculus, UniProt P35363); type: functional, cell-based;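 also: CHO-K1 cells with tagged receptor and beta-arrestin; agonist potency measured as compound-induced activation of the receptor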
Beta-lactamase [16] = target: T4, Beta-lactamase (Pseudomonas aeruginosa, UniProt Q79MP6); assay: […] counterscreen for selective VIM-2 inhibitors: dose response biochemical high throughput screening assay to identify inhibitors of IMP-1 metallo-beta-lactamase.
Beta-lactamase [17] = target: T4, Beta-lactamase; assay: inhibition of IMP-1 beta-lactamase activity – biochemical, epi-absorbance, selectivity assay for VIM-2 inhibitor project, dose response (AID 1920)
Beta-lactamase [18] = target: Beta-lactamase (Salmonella choleraesuis (strain SC-B67), UniProt Q5J463); assay: Epi-absorbance-based counterscreen for selective VIM-2 inhibitors: dose response biochemical high throughput screening assay to identify inhibitors of TEM-1 serine-beta-lactamase.
Chain of Beta-lactamase (Salmonella choleraesuis (strain SC-B67), UniProt Q5J463) (Q5J463 whole entry): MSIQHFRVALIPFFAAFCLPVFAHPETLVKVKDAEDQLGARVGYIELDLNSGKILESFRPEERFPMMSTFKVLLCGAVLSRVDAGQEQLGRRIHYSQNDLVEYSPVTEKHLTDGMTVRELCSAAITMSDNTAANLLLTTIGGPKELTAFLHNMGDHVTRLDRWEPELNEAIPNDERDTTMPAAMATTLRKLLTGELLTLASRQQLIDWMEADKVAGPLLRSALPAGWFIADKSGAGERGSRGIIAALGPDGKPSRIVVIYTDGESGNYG

T2 sequence (P49327 whole entry): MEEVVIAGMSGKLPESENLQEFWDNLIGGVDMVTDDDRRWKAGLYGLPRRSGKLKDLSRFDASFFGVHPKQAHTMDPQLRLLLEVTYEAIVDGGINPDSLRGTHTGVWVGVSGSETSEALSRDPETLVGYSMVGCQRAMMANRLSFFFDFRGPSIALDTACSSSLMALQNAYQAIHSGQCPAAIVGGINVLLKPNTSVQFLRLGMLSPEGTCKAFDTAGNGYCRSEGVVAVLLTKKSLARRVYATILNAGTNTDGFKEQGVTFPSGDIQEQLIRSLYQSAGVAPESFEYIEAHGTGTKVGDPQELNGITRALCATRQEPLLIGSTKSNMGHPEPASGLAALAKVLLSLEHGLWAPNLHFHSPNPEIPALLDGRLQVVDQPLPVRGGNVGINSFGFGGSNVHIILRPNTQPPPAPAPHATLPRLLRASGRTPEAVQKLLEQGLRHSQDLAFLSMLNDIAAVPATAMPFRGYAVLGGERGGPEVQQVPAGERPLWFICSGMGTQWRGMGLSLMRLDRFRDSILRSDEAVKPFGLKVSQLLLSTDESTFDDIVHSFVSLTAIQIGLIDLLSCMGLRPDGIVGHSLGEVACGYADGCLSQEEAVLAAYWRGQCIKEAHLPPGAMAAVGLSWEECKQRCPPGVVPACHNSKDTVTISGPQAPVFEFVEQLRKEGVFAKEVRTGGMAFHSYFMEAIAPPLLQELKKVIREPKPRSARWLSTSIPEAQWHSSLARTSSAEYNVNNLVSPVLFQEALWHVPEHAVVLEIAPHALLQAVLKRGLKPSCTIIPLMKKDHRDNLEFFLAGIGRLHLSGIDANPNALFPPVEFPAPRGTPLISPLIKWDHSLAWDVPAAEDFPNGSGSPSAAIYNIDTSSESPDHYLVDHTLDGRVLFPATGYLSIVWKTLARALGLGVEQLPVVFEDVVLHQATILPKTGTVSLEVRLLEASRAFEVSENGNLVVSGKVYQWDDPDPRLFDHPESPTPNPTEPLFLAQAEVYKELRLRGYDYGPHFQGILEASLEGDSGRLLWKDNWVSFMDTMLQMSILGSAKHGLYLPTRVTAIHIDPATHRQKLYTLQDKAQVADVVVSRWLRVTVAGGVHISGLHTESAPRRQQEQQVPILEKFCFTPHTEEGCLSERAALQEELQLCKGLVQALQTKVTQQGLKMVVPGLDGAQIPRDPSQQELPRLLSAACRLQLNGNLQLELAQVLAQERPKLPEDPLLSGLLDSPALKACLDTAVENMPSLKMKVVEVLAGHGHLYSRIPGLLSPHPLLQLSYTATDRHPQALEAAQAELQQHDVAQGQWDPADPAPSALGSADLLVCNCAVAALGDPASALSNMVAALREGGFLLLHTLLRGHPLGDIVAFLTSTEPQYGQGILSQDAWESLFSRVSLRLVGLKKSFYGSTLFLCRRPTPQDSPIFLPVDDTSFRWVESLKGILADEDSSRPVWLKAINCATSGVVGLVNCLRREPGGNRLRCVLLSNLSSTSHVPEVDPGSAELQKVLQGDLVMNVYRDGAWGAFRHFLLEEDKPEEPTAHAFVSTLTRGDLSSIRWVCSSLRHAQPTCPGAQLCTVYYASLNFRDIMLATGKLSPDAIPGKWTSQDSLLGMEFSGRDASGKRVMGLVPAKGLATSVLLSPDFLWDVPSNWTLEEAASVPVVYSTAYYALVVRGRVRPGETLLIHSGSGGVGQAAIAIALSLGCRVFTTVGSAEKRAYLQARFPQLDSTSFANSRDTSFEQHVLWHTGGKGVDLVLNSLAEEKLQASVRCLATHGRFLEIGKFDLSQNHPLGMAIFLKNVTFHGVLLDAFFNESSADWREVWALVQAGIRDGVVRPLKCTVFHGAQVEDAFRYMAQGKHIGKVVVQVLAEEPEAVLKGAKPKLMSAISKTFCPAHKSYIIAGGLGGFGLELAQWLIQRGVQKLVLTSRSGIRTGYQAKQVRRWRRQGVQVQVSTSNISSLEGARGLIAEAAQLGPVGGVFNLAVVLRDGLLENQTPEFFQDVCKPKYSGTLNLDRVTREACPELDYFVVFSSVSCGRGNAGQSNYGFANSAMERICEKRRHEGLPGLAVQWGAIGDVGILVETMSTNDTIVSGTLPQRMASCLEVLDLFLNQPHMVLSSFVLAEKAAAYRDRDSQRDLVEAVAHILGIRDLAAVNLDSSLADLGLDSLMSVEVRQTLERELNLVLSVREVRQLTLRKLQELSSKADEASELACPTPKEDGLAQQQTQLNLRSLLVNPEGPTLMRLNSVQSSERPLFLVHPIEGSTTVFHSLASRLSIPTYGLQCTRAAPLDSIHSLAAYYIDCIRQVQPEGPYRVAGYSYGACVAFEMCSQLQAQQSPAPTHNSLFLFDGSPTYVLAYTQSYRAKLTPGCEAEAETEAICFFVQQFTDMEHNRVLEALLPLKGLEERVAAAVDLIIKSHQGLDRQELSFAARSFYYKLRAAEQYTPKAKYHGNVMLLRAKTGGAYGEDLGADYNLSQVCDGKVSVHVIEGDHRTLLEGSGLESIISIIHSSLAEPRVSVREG
T4 sequence (Q79MP6 whole entry): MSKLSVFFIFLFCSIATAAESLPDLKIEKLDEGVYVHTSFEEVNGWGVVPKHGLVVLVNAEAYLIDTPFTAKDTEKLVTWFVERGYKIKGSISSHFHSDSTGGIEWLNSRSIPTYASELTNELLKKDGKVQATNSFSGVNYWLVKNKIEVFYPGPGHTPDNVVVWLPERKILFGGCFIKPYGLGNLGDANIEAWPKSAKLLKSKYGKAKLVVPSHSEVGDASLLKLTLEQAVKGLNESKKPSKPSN
T1 sequence (Q38C91 whole entry): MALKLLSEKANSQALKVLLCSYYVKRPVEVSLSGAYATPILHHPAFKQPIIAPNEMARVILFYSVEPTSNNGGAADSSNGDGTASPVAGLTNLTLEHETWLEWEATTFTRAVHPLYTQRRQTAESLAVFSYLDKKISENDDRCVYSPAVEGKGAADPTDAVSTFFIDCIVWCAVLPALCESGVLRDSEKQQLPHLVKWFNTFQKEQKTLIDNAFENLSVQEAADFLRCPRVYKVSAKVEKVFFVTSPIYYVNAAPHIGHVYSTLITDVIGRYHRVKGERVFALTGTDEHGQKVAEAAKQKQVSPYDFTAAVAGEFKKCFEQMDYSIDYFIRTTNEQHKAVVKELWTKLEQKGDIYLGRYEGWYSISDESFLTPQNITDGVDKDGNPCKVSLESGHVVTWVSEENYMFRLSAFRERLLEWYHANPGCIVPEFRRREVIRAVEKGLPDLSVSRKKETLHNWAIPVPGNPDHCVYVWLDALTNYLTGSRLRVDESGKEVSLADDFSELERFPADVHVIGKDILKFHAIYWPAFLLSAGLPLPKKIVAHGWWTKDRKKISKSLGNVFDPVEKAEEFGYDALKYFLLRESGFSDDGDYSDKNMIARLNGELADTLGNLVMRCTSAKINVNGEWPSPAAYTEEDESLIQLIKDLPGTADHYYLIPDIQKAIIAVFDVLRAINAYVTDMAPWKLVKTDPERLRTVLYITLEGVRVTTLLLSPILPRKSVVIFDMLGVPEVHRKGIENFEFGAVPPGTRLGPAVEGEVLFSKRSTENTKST
Chain of Paired box protein Pax-8 (Q06710 whole entry): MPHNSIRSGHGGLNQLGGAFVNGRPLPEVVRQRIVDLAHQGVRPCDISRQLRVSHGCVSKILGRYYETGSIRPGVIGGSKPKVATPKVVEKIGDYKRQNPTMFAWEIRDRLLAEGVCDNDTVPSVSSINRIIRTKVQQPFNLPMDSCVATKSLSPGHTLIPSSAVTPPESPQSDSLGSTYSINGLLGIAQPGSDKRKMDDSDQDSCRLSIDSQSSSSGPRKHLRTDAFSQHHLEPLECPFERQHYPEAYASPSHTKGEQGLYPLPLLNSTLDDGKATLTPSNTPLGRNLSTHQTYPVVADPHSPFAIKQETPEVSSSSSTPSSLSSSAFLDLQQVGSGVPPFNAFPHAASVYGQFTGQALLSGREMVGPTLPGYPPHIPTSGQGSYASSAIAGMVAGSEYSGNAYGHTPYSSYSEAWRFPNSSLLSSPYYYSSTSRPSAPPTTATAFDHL
Chain of Mu-type opioid receptor (P35372 whole entry): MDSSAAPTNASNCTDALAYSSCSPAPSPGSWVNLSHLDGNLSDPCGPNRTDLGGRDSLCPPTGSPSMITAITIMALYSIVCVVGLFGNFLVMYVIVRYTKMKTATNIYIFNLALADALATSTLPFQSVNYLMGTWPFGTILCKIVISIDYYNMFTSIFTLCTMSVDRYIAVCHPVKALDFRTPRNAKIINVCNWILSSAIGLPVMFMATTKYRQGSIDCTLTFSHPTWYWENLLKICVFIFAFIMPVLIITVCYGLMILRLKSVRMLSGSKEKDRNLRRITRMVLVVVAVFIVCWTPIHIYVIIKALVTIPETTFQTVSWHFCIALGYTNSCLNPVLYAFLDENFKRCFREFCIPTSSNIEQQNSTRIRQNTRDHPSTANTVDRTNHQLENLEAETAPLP

Cc1cccc(NC(=O)CCNC(=O)c2ccc(Br)cc2)c1
IC50 [1]: 12.9 µM (inactive)
IC50 [2]: 83.3 µM (inactive)
IC50 [3]: 5.8 µM (active)

CCOc1ccccc1NC(=O)c1nc(S(=O)(=O)Cc2cccc(C)c2)ncc1Cl
AC50 [4]: 18.8 µM (active)
AC50 (INS1): 5.15 µM (active)
AC50 [5]: 24.4 µM (active)
EC50 [6]: 12 µM (active)
EC50 [7]: 8.12 µM (active)
AC50 (Paired box protein Pax-8): 7.71 µM (active)
IC50 (Fatty acid synthase [8]): 11.5 µM (active)
EC50 [9]: > 120 µM (not active)
AC50 [10]: 6.38 µM (active)
IC50 (Fatty acid synthase [11]): 3.06 µM (active)
EC50 [12]: 11.5 µM (active)
EC50 [13]: 10.9 µM (active)
EC50 (Streptokinase A): 1.28 µM (active)
AC50 [14]: 0.324 µM (active)
EC50 (Streptococcus): 15.7 µM (active)

O=C(NCCCN1CCN(c2ccccc2F)CC1)C1CCC(=O)N1C1CCCCC1 (stereo not drawn)
EC50 (Mu-type opioid receptor): 92.5 µM (inactive)
EC50 [15]: 76.1 µM (inactive)

NC(=O)SCC(=O)Nc1ccccc1C(=O)O
IC50 (Beta-lactamase [16]): 24.1 µM (inactive)
IC50 (Beta-lactamase [17]): > 59.6 µM (inactive)
IC50 (Beta-lactamase [18]): > 59.6 µM (inactive)
